Measured values: PubChem BioAssay AID743394 (Broad Institute, 2014)
Calls of active or inactive are those of the source.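 The calls were made as follows: active = 40% activation versus positive control reached by fitted dose-response curve at or below highest valid tested dose; inconclusive = poor fit quality, or flat fit with activation between 30% and 70%; inactive = the rest.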

Assay: Xi-linked GFP reactivating small molecules – imaging, 68-5-11 mouse fibroblasts, cherry-pick, dose response (AID 743394);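 also: sensitizer 5-aza-dC present in the wells at 0.5 mM final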
Details: 68-5-11 mouse fibroblast XiGFP reporter, % GFP-positive imaging, 3 d, at 19.5 µM (top of the series)
[1] = cells co-treated with 5-aza-dC sensitizer, scaled: neutral wells 0, ellipticine wells 100

Structure (SMILES)	activation	activation [1]
O=C(Cc1ccccn1)N1CCCCN2[C@H](C1)[C@@H](c1ccc(-c3ccccc3F)cc1)[C@@H]2CO	1.33% (inactive)	
Nc1[nH]c(=O)nc(Nc2ccccc2)c1N=O		-0.037% (inactive)
C[C@@H]1CN([C@@H](C)CO)C(=O)c2ccccc2-c2ccccc2CO[C@@H]1CN(C)C(=O)Nc1ccc2c(c1)OCO2		0.081% (inactive)
COc1ccc(N(CC(=O)Nc2nccs2)S(=O)(=O)c2c(C)[nH]c(=O)[nH]c2=O)cc1		0.033% (inactive)
COc1ccccc1C#Cc1ccc2c(c1)O[C@H](CN(C)Cc1cncnc1)[C@@H](C)CN([C@H](C)CO)S2(=O)=O		0.045% (inactive)
COc1ccc(C)c(-n2c(=O)n(Cc3ccccc3)c(=O)c3[nH]cnc32)c1		-0.006% (inactive)
CC1Oc2ccccc2C=C1/C=N\NC(=O)c1cccnc1 (stereo not drawn)		0.047% (inactive)
CC1=C(Cl)C2=NS(=O)(=O)CCN2C=C1Cl		0.137% (inactive)
COc1ccc2c(c1)C(C)=CC(C)(C)N2S(=O)(=O)c1ccc(Br)cc1		0.373% (inactive)
CC(O)CN(CC(C)O)c1ccc2c(c1)Cc1cc([N+](=O)[O-])ccc1-2 (stereo not drawn)		11.6% (inactive)
Cc1ccc(-c2csc3nc4c5ccccc5c(NCCCN(C)C)nn4c(=O)c23)cc1		-0.05% (inactive)
COc1ccccc1C(=O)Nc1nnc(S(=O)(=O)N2CCCCCC2)s1		0.014% (inactive)
CC(C)N1C(=O)C(=O)N(CC(=O)N2CCc3ccccc32)C1=O		-0.031% (inactive)
Cc1noc(C)c1S(=O)(=O)Nc1ccc2c(c1)C(=O)N([C@H](C)CO)C[C@H](C)[C@H](CN(C)C(=O)Nc1ccc(F)cc1)OCCCC[C@H](C)O2		0.022% (inactive)
C/C(=N\NC(=O)c1ccccc1Cl)c1ccccn1		3.5% (inactive)
CC1=Nc2ccccc2/C1=C\c1sc(Nc2ccc(C)cc2)nc1O		0.535% (inactive)
CCOC(=O)/C(C#N)=C/C=C1/C=CC=CN1C		0.071% (inactive)
CC(C)NC(=O)N(C)C[C@@H]1OCCCC[C@H](C)Oc2ccc(NC(=O)Nc3ccc(C(F)(F)F)cc3)cc2C(=O)N([C@H](C)CO)C[C@@H]1C		0.005% (inactive)
COc1ccccc1CNC(=O)COC(=O)COc1ccccc1F		0.549% (inactive)
COc1ccc(C(=O)Nc2ccc3oc(-c4cccc(F)c4)nc3c2)cc1OC		0.002% (inactive)
C[C@H]1CN([C@@H](C)CO)C(=O)c2ccccc2-c2ccccc2CO[C@H]1CN(C)C(=O)[C@@H](Cc1ccccc1)N(C)C		0% (inactive)
CCN1CCN(c2cc3nc(C)n(Cc4ccccc4)c(=O)c3cc2NC(=O)c2ccccc2F)CC1		-0.127% (inactive)

Structure (SMILES)	activation	activation [1]
Cc1ccc(Cl)cc1NC(=O)CCC(=O)O		-0.002% (inactive)
COc1ccc(-c2nnc(NC(=O)c3ccc(F)cc3)o2)cc1		-0.035% (inactive)
Cc1c(Nc2cc(Cl)c3nonc3c2[N+](=O)[O-])c(=O)n(-c2ccccc2)n1C		-0.121% (inactive)
CN(c1ccccc1)S(=O)(=O)c1ccc(C(=O)NCC(c2ccco2)N2CCCCC2)cc1 (stereo not drawn)		-0.009% (inactive)
Oc1cc2c(c(Cl)c1O)CCNCC2c1ccccc1 (stereo not drawn)		-0.008% (inactive)
COc1ccc(NC(=O)COc2ccc(C)c(C)c2)cc1S(=O)(=O)N1CCCCC1		0.164% (inactive)
Cn1c(NC(=O)c2ccc(F)cc2)c(-c2ccccn2)c(=O)c2ccccc21		0.155% (inactive)
O=C1Nc2ccccc2/C1=C/c1ccccc1Cl		-0.034% (inactive)
O=C(COC(=O)COc1cccc(C(F)(F)F)c1)NC1CCS(=O)(=O)C1 (stereo not drawn)		-0.034% (inactive)
COc1ccc(-c2ccc(C(=O)NCc3cccs3)c3occc23)c(C)c1		-0.032% (inactive)
C=CCNC(=O)N[C@@H](Cc1ccccc1)C(=O)OC		-0.065% (inactive)
O=C(NC1=C(NC2CCS(=O)(=O)C2)C(=O)c2ccccc2C1=O)c1ccccc1 (stereo not drawn)		-0.047% (inactive)
Oc1ccc(Br)cc1C=Nc1ccc2c3c(cccc13)CC2		0.056% (inactive)
COc1cccc(-c2ccc(C3[C@@H]4CN(C(=O)C5CCCCC5)C[C@H]3N4)cc2)c1 (stereo partly drawn)		2.76% (inactive)
C=CCN(CC(O)c1cccc([N+](=O)[O-])c1)C(C)CCc1ccccc1 (stereo not drawn)		-0.039% (inactive)
COc1ccc(CCCc2nc3ccccc3[nH]2)cc1		-0.001% (inactive)
O=C(NCCOc1ccccc1)c1cc([N+](=O)[O-])ccc1N1CCOCC1		0.193% (inactive)
Cn1c(=O)[nH]c(=O)c2c1nc1n2CCCN1Cc1ccccc1		0.106% (inactive)
COCCNC(=O)CSc1nc2scc(-c3ccccc3)c2c(=O)[nH]1		-0.001% (inactive)
COc1cc(C(=O)NC(=S)Nc2cccc3nc(C)ccc23)cc(OC)c1OC		1% (inactive)
COC(=O)c1cc(C(=O)N2CCN(c3ccccc3OC)CC2)cc([N+](=O)[O-])c1		0.681% (inactive)
Cc1c(/C=N\NC(=O)c2cc3ccccc3o2)c2ccccc2n1C		-0.044% (inactive)

Structure (SMILES)	activation	activation [1]
Cc1ccc(S(=O)(=O)NN2C(=O)/C(=C/c3ccccn3)SC2=S)cc1		0.025% (inactive)
Cc1cc(NC(=O)c2c(-c3c(Cl)cccc3Cl)noc2C)n(C)n1		-0.127% (inactive)
Cc1ccc(S(=O)(=O)Nc2cccc3c2O[C@H](CN(C)C(=O)Nc2cccc4ccccc24)[C@H](C)CN([C@H](C)CO)C3=O)cc1		0.028% (inactive)
NNc1nc2c(-c3ccc(F)cc3)nnn2c2ccccc12		0.731% (inactive)
Cc1ccccc1NC(=O)CN1C(=O)S/C(=C\c2ccc(-c3cc(C(=O)O)ccc3C)o2)C1=O		0.024% (inactive)
O=C(O)c1ccccc1C1Nc2ccccc2C(=O)N1CCCN1CCOCC1 (stereo not drawn)		0.018% (inactive)
CC1CN(Cc2c(O)ccc3c2oc(=O)c2ccccc23)CC(C)O1 (stereo not drawn)		-0.012% (inactive)
COc1ccc(N=Nc2ccc(O)c(P(=O)(c3ccccc3)c3ccccc3)c2)cc1		0.015% (inactive)
COc1ccc(C2=C(c3ccccc3)OC(OC)c3cc(F)ccc32)cn1 (stereo not drawn)		0.027% (inactive)
O=C(COC(=O)c1cc(=O)[nH]c(=O)[nH]1)Nc1cccc(S(=O)(=O)N2CCCCC2)c1		0.052% (inactive)
CC(C)CC#Cc1ccc([C@@H]2[C@@H](CO)N3C(=O)CN(C(=O)c4cccc(F)c4)C[C@H]23)cc1		0.027% (inactive)
C=Cc1cnc([N+](=O)[O-])n1C		-0.018% (inactive)
COc1ccc2c3c([nH]c2c1)[C@@H](CO)N(Cc1ccccc1F)CC31CN(C(=O)C2CCOCC2)C1		0.046% (inactive)
COc1ccc(CN(C)Cc2nc(Cc3ccccc3Cl)no2)cc1OC		-0.032% (inactive)
Cc1ccccc1NC(=O)c1c(C)[nH]c(=S)c(C#N)c1-c1ccc(Cl)cc1		0.075% (inactive)
Cc1cc(=O)oc2cc3c(cc12)CCCN3	0.76% (inactive)	
COc1ccc(C(=O)CN2Cc3ccccc3C2=N)cc1		0.166% (inactive)
CC(NC(=O)c1ccccc1)C(=O)N/N=C/c1ccccc1 (stereo not drawn)		0.535% (inactive)
COc1ccc(NC(=O)C(=O)NCCC2CCCCN2S(=O)(=O)c2cccs2)cc1 (stereo not drawn)		6.11% (inactive)
S=C(NCc1ccco1)Nc1cccc(Cl)c1Cl		-0.047% (inactive)
O=C(COC(=O)/C=C/c1cccc(C(F)(F)F)c1)NC(=O)NCc1ccco1		-0.07% (inactive)
CCOC(=O)c1ccc(NC(=O)C2CCC(CNc3c(N4CCOCC4)c(=O)c3=O)CC2)cc1 (stereo not drawn)		0.016% (inactive)

Structure (SMILES)	activation	activation [1]
O=C(CCn1nc(-c2ccc(Cl)cc2)c2ccccc2c1=O)NN1CCOCC1		-0.017% (inactive)
Cc1ncsc1C(=O)Nc1cccc(C(F)(F)F)c1		-0.075% (inactive)
COC(=O)Cn1cc(/C=C2\C(=O)NC(=O)N(c3ccc(OC)cc3)C2=O)c2ccccc21	0.09% (inactive)	
O=C1c2ccccc2C(=Cc2cccnc2)c2ccccc21		0.325% (inactive)
O=C(OCc1cccc(F)c1)c1ccc2c(=O)n3c(nc2c1)CCC3		1.02% (inactive)
COc1ccc(-n2nc(C#N)c(Cl)cc2=O)cc1		0.745% (inactive)
CCN(CC)CCCN=Cc1c(O)n(-c2cccc(C)c2)c(=O)c2ccccc12		-0.005% (inactive)
N#Cc1ccccc1Cn1cc(/C=N/Nc2ccc([N+](=O)[O-])cn2)c2ccccc21		10.9% (inactive)
Cc1nc(NC(=O)C(Cl)Cl)sc1C(=O)N(C)C		-0.034% (inactive)
Cn1c(=O)[nH]c(=O)c2c1nc(SCCN1CCOCC1)n2CCCc1ccccc1		-0.047% (inactive)
CC[N+]1=C(C)C(C)(C)c2cc(C)ccc21		-0.032% (inactive)
CC(C)C(NC(=O)c1ccc(F)cc1)C(=O)NCC1CCCO1 (stereo not drawn)		0.21% (inactive)
CCOC(=O)N1CCN(Cc2cc(Cl)c3cccnc3c2O)CC1		-0.05% (inactive)
C[n+]1c(-c2ccccc2)c2cc(N)ccc2c2ccc(N)cc21	1.19% (inactive)	
O=C(Nc1ccccc1)N1C[C@@H]2[C@H](c3ccccc31)[C@H](CO)N2C(=O)c1ccccc1F		0.2% (inactive)
CC(=NNc1ccc2ccccc2n1)c1ccccn1		1.93% (inactive)
CCOC(=O)C1(Cc2ccccc2C)CCCN(C(=O)CSC)C1 (stereo not drawn)		-0.053% (inactive)
COc1ccc(CN(C)C[C@H]2OCCCC[C@@H](C)Oc3ccc(NC(=O)Nc4ccc(F)cc4)cc3C(=O)N([C@@H](C)CO)C[C@H]2C)cc1		3.19% (inactive)
Cc1ccc(-c2nc3ccc(Br)cn3c2Cc2ccccc2C(F)(F)F)cc1		0.06% (inactive)
C[C@@H]1CCCCO[C@H](CN(C)Cc2ccc3c(c2)OCO3)[C@@H](C)CN([C@H](C)CO)C(=O)c2cc(NS(=O)(=O)c3ccc(F)cc3)ccc2O1		0.107% (inactive)
COC(=O)c1cc(NS(=O)(=O)c2ccc(NC(C)=O)cc2)ccc1Cl		-0.044% (inactive)
CC[C@]12c3[nH]c4cc(CCC(=O)N(C)C)ccc4c3CCN1C(=O)[C@@H](CC(=O)NCCC1=CCCCC1)C[C@@H]2C(=O)N1CCN(C(=O)c2ccco2)CC1		0.011% (inactive)
